Counter-ions that a name gives are not always drawn. Like-named read-outs stand apart in the source and are kept apart here.
How the values were obtained:
[1] = in vitro; conditions: human, HepG2 4 days CC50
[2] = system: HBV; assay: anti HBV activity in HepG2.117 cell line (Tet-off, inducibly HBV producing), intracellular HBV DNA by realtime PCR; format: cell-based, Hepatitis B virus; conditions: HepG2.117 cells, 3 days of treatment, intracellular HBV DNA, read-out: HepG2 117 EC50
[3] = system: HBV; assay: anti-HBV activity in stable transfected HepG2.2.15 cell line, HBV DNA from secreted virions by realtime PCR; format: cell-based, Hepatitis B virus; conditions: HepG2.2.15 cells, 6 days of treatment, secreted virion HBV DNA, read-out: HBV-HepG2 2.15 EC50
[4] = Cytotoxicity in HepG2 cells using CellTiter-Blue, same incubation period as HepG2.2.15 assay; format: cell-based; conditions: human
Procedure: Cytotoxicity of the compounds was tested in HepG2 cells using CellTiter-Blue, with the same incubation period and dose range as in the HepG2.2.15 assay.

[5] = Cytotoxicity in HepG2 cells incubated 4 days, Resazurin assay; conditions: human, HepG2 4 days CC50, HepG2 cells
[6] = Hepatitis B virus, HepG2.117, 72 h
[7] = Hepatitis B virus, HepG2.2.15, 144 h
[8] = HepG2 cells, 6 days, CellTiter-Blue, read-out: HepG2 6 days CC50

Structure (SMILES)	CC50 at 4 days [1] [µM]	EC50 [2, 6] [nM]	EC50 [3] [µM]	CC50 at 6 days ([4]; HepG2 6 days CC50) [µM]	EC50 [2] [nM]	EC50 [3, 7] [µM]	CC50 at 6 days [4, 8] [µM]	CC50 at 4 days [5] [µM]
COC(=O)C1=C(C)NC(c2nccs2)=NC12C(F)=C(F)c1cc(F)ccc12 (single isomer, unassigned) [Compound 166a]	> 25	> 25000	> 50					
COC(=O)C1=C(C)NC(c2nccs2)=NC12C(F)=Cc1c2ccc(F)c1F (racemic) [Compound 174]	> 25	13400						
COC(=O)C1=C(C)NC(c2ncc(F)cc2F)=NC12c1ccccc1OC2(F)F (single isomer, unassigned) [Compound 106a]	> 50	> 50000	> 100	> 100				
COC(=O)C1=C(CN2CCOCC2)NC(c2ccccn2)=NC12CCc1c(F)cccc12 (single isomer, unassigned) [Compound 66a]	> 100		< 0.391	> 100	66			
COC(=O)C1=C(C)NC(c2ccccn2)=NC12CCOc1ccccc12 (centres unmarked) [Compound 85]	> 50	> 50000		> 100		> 100		
COC(=O)C1=C(CN2CCOCC2)NC(c2ccccn2)=NC12C=Cc1cc(F)ccc12 (centres unmarked) [Compound 145]	> 25	620				0.36		
COC(=O)C1=C(C)NC(c2nccs2)=NC12C(F)=Cc1c2ccc(F)c1F (single isomer, unassigned) [Compound 174a]	> 25				8970			
COC(=O)C1=C(C)NC(c2ncc(F)cc2F)=NC12C(=O)Nc1cc(F)ccc12 (centres unmarked) [Compound 123]	> 25	> 25000				> 100		
COC(=O)C1=C(CN2CCOCC2)NC(c2ccccn2)=NC12CCC(C)(C)c1ccccc12 (centres unmarked) [Compound 72]	> 100	72000		71.1		54		
COC(=O)C1=C(C)NC(c2ncc(F)cc2F)=NC12CCCc1cc(F)ccc12 (centres unmarked) [Compound 80]	> 50	25100		51.1				
COC(=O)C1=C(C)NC(c2ccccn2)=NC12CCc1ccccc12 (centres unmarked) [Compound 90]	> 50	22700		> 50		5.82		
COC(=O)C1=C(C)NC(c2ncc(F)cc2F)=NC12CC(C)(C)c1ccccc12 (single isomer, unassigned) [Compound 134a]	> 50	> 50000	91.2	53				
CCOC(=O)C1=C(CN2CCOCC2)NC(c2ccccn2)=NC12CCc1cc(F)ccc12 (centres unmarked) [Compound 39]	> 100	410		62.9		0.405		
CCOC(=O)C1=C(CN2CCOCC2)NC(c2ccccn2)=NC12CCCc1ccc(F)cc12 (centres unmarked) [Compound 59]	> 100	46700		68.9		59.5		
COC(=O)C1=C(CN2CCOCC2)NC(c2ccccn2)=NC12CC(=O)c1cc(F)ccc12 (centres unmarked) [139 •TFA]	> 25	707				0.99		
CCOC(=O)C1=C(CN2CCOCC2)NC(c2ccccn2)=NC12CCC(C)(C)c1ccccc12 (centres unmarked) [Compound 56]	> 100	52600		36.4		35.2		
COC(=O)C1=C(C)NC(c2ncc(F)cc2F)=NC12CCc1c2ccc(F)c1F (centres unmarked) [Compound 100]	> 100	506		> 100		0.546		
COC(=O)C1=C(CN2CCOCC2)NC(c2ccccn2)=NC12CCCc1cc(F)ccc12 (centres unmarked) [Compound 74]	> 100	1330		78.3		2.06		
COC(=O)C1=C(C)NC(c2ccccn2)=NC12c1ccccc1CC2(F)F (centres unmarked) [Compound 111]	> 50	> 50000		> 100		81.8		
COC(=O)C1=C(CN2CCOCC2)NC(c2ccccn2)=NC12CCc1ccccc12 (centres unmarked) [Compound 89]	> 100	470		> 100		0.604		
COC(=O)C1=C(C)NC(c2nccs2)=NC12C(F)=C(F)c1cc(F)ccc12 (racemic) [Compound 166]	> 25	14200				0.24		
COC(=O)C1=C(CN2CCOCC2)NC(c2ccccn2)=NC12CCOc1ccccc12 (centres unmarked) [Compound 86]	> 100	5490		> 100		8.64		
COC(=O)C1=C(C)NC(c2ncc(F)cc2F)=NC12C(=O)N(C)c1cc(F)ccc12 (centres unmarked) [Compound 118]	> 50	> 50000		> 100		40.7		

Structure (SMILES)	CC50 at 4 days [1] [µM]	EC50 [2, 6] [nM]	EC50 [3] [µM]	CC50 at 6 days ([4]; HepG2 6 days CC50) [µM]	EC50 [2] [nM]	EC50 [3, 7] [µM]	CC50 at 6 days [4, 8] [µM]	CC50 at 4 days [5] [µM]
COC(=O)C1=C(CN2CCOCC2)NC(c2ncc(F)cc2F)=NC12CC(C)(C)c1ccccc12 (centres unmarked) [Compound 93]	> 100	81200		41.5		53.4		
COC(=O)C1=C(CN2CCOCC2)NC(c2ccccn2)=NC12CCc1cc(F)ccc12 (centres unmarked) [Compound 143]	> 25	222						
COC(=O)C1=C(CN2CCOCC2)NC(c2ncc(F)cc2F)=NC12CCc1c2ccc(F)c1F (centres unmarked) [Compound 101]	> 50	73		> 25		< 0.098		
COC(=O)C1=C(CN2CCOCC2)NC(c2ccccn2)=NC12c1ccccc1CC2(F)F (centres unmarked) [Compound 110]	> 50	6140		> 100		10.7		
COC(=O)C1=C(CN2CCOCC2)NC(c2ccccn2)=NC12C(F)=Cc1ccccc12 (centres unmarked) [Compound 112]	> 50	410		> 100		0.624		
COC(=O)C1=C(CN2CCOCC2)NC(c2ccccn2)=NC12CCc1ccc(F)cc12 (single isomer, unassigned) [Compound 96a]	> 100		0.65	> 100	300			
CCOC(=O)C1=C(CN2CCOCC2)NC(c2ncc(F)cc2F)=NC1(C)c1ccc(F)cc1 (centres unmarked) [Compound 24]		160				0.319	37.9	> 25
COC(=O)C1=C(CN2CCOCC2)NC(c2ccccn2)=NC12CCc1c(F)cccc12 (racemic) [Compound 66]	> 25	170		89.3		0.207		
N#CC1=C(CN2CCOCC2)NC(c2ccccn2)=NC12CCCc1ccc(F)cc12 (centres unmarked) [Compound 58]		> 25000				> 100	> 100	> 25
COC(=O)C1=C(CN2CCOCC2)NC(c2ccccn2)=NC12CCc1ccc(F)cc12 (centres unmarked) [Compound 96]	97	940		> 100		0.954		
COC(=O)C1=C(C)NC(c2ncc(F)cc2F)=NC12c1ccccc1OC2(F)F (centres unmarked) [Compound 106]	> 25	> 25000		> 100		98.4		
COC(=O)C1=C(CN2CCOCC2)NC(c2ccccn2)=N[C@@]12c1ccc(F)cc1C[C@H]2F (racemic) [Compound 175]	> 25	146				< 0.195		
COC(=O)C1=C(CN2CCOCC2)NC(c2ccccn2)=NC12CC(C)c1cc(F)ccc12 (centres unmarked) [Compound 146]	> 25	2620				1.36		
CCOC(=O)C1=C(CN2CCOCC2)NC(c2ccccn2)=NC1(C)c1ccc(F)cc1 (racemic) [Compound 4]		660	1.92				51.1	> 25
COC(=O)C1=C(CN2CCOCC2)NC(c2ccccn2)=NC12c1ccccc1OC2(F)F (centres unmarked) [Compound 124]	> 25	2410		48.4		13		
COC(=O)C1=C(CN2CCOCC2)NC(c2ccccn2)=NC12CC(O)c1cc(F)ccc12 (centres unmarked) [Compound 144]	> 10	4940						
CCOC(=O)C1=C(C(F)(F)F)NC(c2ccccn2)=NC1(C)c1ccc(F)cc1 (centres unmarked) [Compound 10]		> 10000				> 10	> 10	> 10
CCOC(=O)C1=C(CN2CCSCC2)NC(c2ccccn2)=NC1(C)c1ccc(F)cc1 (centres unmarked) [Compound 8]		3300				14.8	54.3	> 50
COC(=O)C1=C(C)NC(c2ncc(F)cc2F)=NC12c1ccccc1CC2(F)F (centres unmarked) [Compound 115]	> 25	> 25000		> 100		> 100		
COC(=O)C1=C(C)NC(c2ncc(F)cc2F)=NC1(C)c1ccc(F)cc1 (centres unmarked) [Compound 128]		2470				9.1	63.8	> 50
COC(=O)C1=C(CN2CCOCC2)NC(c2ccccn2)=NC12C(F)=C(F)c1cc(F)ccc12 (centres unmarked) [Compound 169]	> 25	137						
COC(=O)C1=C(CN2CCOCC2)NC(c2ccccn2)=NC12c1ccc(F)cc1C(F)C2(F)F (single isomer, unassigned) [Compound 168A]	> 25				3510	9.64		
